Activity calls are given as the source filed them. The calls are words filed in the database; no cut-off is given here.
How the values were obtained:
Vaccinia virus WR [1] = experiment: Antiviral activity against Vaccinia virus WR ATCC VR-1354 infected through percutaneous route in BALB/c mouse assessed as reduction of viral load in liver at 100 mg/kg, po qd measured after 13 days postinfection by RT-PCR analysis relative to control; type: functional, organism-based; parameters: dose 100 mg/kg
Vaccinia virus WR [2] = experiment: Antiviral activity against Vaccinia virus WR ATCC VR-1354 infected through dermal scarification route in BALB/c mouse assessed as reduction of viral load in blood at 100 mg/kg, po qd measured after 14 days postinfection by RT-PCR analysis relative to control; type: functional, organism-based; parameters: dose 100 mg/kg
Vaccinia virus WR [3] = experiment: Antiviral activity against Vaccinia virus WR ATCC VR-1354 infected through intraperitoneal route in BALB/c mouse assessed as reduction of viral load in brain at 100 mg/kg, po qd measured after 3 days postinfection by RT-PCR analysis relative to control; type: functional, organism-based; parameters: dose 100 mg/kg
Vaccinia virus WR [4] = experiment: Antiviral activity against Vaccinia virus WR ATCC VR-1354 infected through dermal scarification route in BALB/c mouse assessed as reduction of viral load in blood at 100 mg/kg, po qd measured after 5 days postinfection by RT-PCR analysis relative to control; type: functional
Vaccinia virus WR [5] = experiment: Antiviral activity against Vaccinia virus WR ATCC VR-1354 infected through percutaneous route in BALB/c mouse assessed as reduction of viral load in liver at 100 mg/kg, po qd measured after 7 days postinfection by RT-PCR analysis relative to control; type: functional, organism-based; parameters: dose 100 mg/kg
Vaccinia virus WR [6] = experiment: Antiviral activity against Vaccinia virus WR ATCC VR-1354 infected through percutaneous route in BALB/c mouse assessed as protection against hypothermia at 100 mg/kg, po qd for 1 to 3 days measured on day 6; type: functional, organism-based; parameters: dose 100 mg/kg
Vaccinia virus WR [7] = experiment: Antiviral activity against Vaccinia virus WR ATCC VR-1354 infected through intravenous route in BALB/c mouse assessed as protection against virus-induced systemic disease symptoms at 100 mg/kg, po qd measured after 9 days postinfection; type: functional, organism-based; parameters: dose 100 mg/kg
Vaccinia virus WR [8] = experiment: Antiviral activity against Vaccinia virus WR ATCC VR-1354 infected through dermal scarification route in BALB/c mouse assessed as reduction of viral load in liver at 100 mg/kg, po qd measured after 5 days postinfection by RT-PCR analysis relative to control; type: functional
Vaccinia virus WR [9] = experiment: Antiviral activity against Vaccinia virus WR ATCC VR-1354 infected through dermal scarification route in ACAM2000 vaccinated BALB/c mouse assessed as reduction of swab virus titers at 100 mg/kg, po qd measured after 5 days postinfection by RT-PCR analysis relative to control; type: functional
Vaccinia virus WR [10] = experiment: Antiviral activity against Vaccinia virus WR ATCC VR-1354 infected through percutaneous route in BALB/c mouse assessed as protection against hypothermia at 100 mg/kg, po qd for 1 to 3 days measured on day 2; type: functional, organism-based; parameters: dose 100 mg/kg
Vaccinia virus WR [11] = experiment: Antiviral activity against Vaccinia virus WR ATCC VR-1354 infected through percutaneous route in BALB/c mouse assessed as inhibition of virus dissemination in blood at 100 mg/kg, po qd for 1 day by RT-PCR analysis; type: functional, organism-based; parameters: dose 100 mg/kg
Vaccinia virus WR [12] = experiment: Antiviral activity against Vaccinia virus WR ATCC VR-1354 infected through intraperitoneal route in BALB/c mouse assessed as reduction of viral load in liver at 100 mg/kg, po qd measured after 5 days postinfection by RT-PCR analysis relative to control; type: functional, organism-based; parameters: dose 100 mg/kg
Vaccinia virus WR [13] = experiment: Antiviral activity against Vaccinia virus WR ATCC VR-1354 infected through percutaneous route in BALB/c mouse assessed as reduction of viral load in lungs at 100 mg/kg, po qd measured after 3 days postinfection by RT-PCR analysis relative to control; type: functional
Vaccinia virus WR [14] = experiment: Antiviral activity against Vaccinia virus WR ATCC VR-1354 infected through dermal scarification route in ACAM2000 vaccinated BALB/c mouse assessed as reduction of swab virus titers at 100 mg/kg, po qd measured after 21 days postinfection by RT-PCR analysis relative to control; type: functional
Vaccinia virus WR [15] = experiment: Antiviral activity against Vaccinia virus WR ATCC VR-1354 infected through percutaneous route in BALB/c mouse assessed as reduction of viral load in spleen at 100 mg/kg, po qd measured after 13 days postinfection by RT-PCR analysis relative to control; type: functional, organism-based; parameters: dose 100 mg/kg
Vaccinia virus WR [16] = experiment: Antiviral activity against Vaccinia virus WR ATCC VR-1354 infected through percutaneous route in BALB/c mouse assessed as reduction of viral load in brain at 100 mg/kg, po qd measured after 3 days postinfection by RT-PCR analysis relative to control; type: functional
Vaccinia virus WR [17] = experiment: Antiviral activity against Vaccinia virus WR ATCC VR-1354 infected through intraperitoneal route in BALB/c mouse assessed as reduction of viral load in blood at 100 mg/kg, po qd measured after 3 days postinfection by RT-PCR analysis relative to control; type: functional, organism-based; parameters: dose 100 mg/kg
Vaccinia virus WR [18] = experiment: Antiviral activity against Vaccinia virus WR ATCC VR-1354 infected through intraperitoneal route in BALB/c mouse assessed as reduction of viral load in lung at 100 mg/kg, po qd measured after 5 days postinfection by RT-PCR analysis relative to control; type: functional, organism-based; parameters: dose 100 mg/kg
Vaccinia virus WR [19] = experiment: Antiviral activity against Vaccinia virus WR ATCC VR-1354 in african green monkey BSC-40 cells infected with 7 day postinfection nasal fluid from 100 mg/kg, po qd compound treated BALB/c mouse infected through percutaneous route assessed as reduction of viral attachment to cells by plaque titration assay; type: functional
Vaccinia virus WR [20] = experiment: Antiviral activity against Vaccinia virus WR ATCC VR-1354 infected through intravenous route in BALB/c mouse assessed as reduction of viral load in spleen at 100 mg/kg, po qd measured after 14 days postinfection by RT-PCR analysis relative to control; type: functional, organism-based; parameters: dose 100 mg/kg
Vaccinia virus WR [21] = experiment: Antiviral activity against Vaccinia virus WR ATCC VR-1354 infected through intraperitoneal route in BALB/c mouse assessed as reduction of viral load in liver at 100 mg/kg, po qd measured after 3 days postinfection by RT-PCR analysis relative to control; type: functional, organism-based; parameters: dose 100 mg/kg
Vaccinia virus WR [22] = experiment: Antiviral activity against Vaccinia virus WR ATCC VR-1354 infected through intraperitoneal route in BALB/c mouse assessed as protection against virus-induced conjunctivitis in mouse eyes at 100 mg/kg, po qd measured after 6 days postinfection; type: functional, organism-based; parameters: dose 100 mg/kg
Vaccinia virus WR [23] = experiment: Antiviral activity against Vaccinia virus WR ATCC VR-1354 infected through percutaneous route in BALB/c mouse assessed as reduction of viral load in spleen at 100 mg/kg, po qd measured after 3 days postinfection by RT-PCR analysis relative to control; type: functional
Vaccinia virus WR [24] = experiment: Antiviral activity against Vaccinia virus WR ATCC VR-1354 infected through dermal scarification route in BALB/c mouse assessed as reduction of viral load in spleen at 100 mg/kg, po qd measured after 5 days postinfection by RT-PCR analysis relative to control; type: functional
Vaccinia virus WR [25] = experiment: Antiviral activity against Vaccinia virus WR ATCC VR-1354 infected through dermal scarification route in BALB/c mouse assessed as protection against virus-induced conjunctivitis in mouse eyes at 100 mg/kg, po qd measured after 6 days postinfection; type: functional, organism-based; parameters: dose 100 mg/kg
Vaccinia virus WR [26] = experiment: Antiviral activity against Vaccinia virus WR ATCC VR-1354 infected through percutaneous route in BALB/c mouse assessed as reduction of viral load in blood at 100 mg/kg, po qd measured after 13 days postinfection by RT-PCR analysis relative to control; type: functional, organism-based; parameters: dose 100 mg/kg

For `O=C(NN1C(=O)[C@@H]2[C@@H]3C=C[C@@H]([C@H]4C[C@@H]34)[C@@H]2C1=O)c1ccc(C(F)(F)F)cc1` [TECOVIRIMAT], which Activity (Vaccinia virus WR [1]) is on record?
Its Activity is “Active”.

What about the Activity (Vaccinia virus WR [2]) of the same compound?
Its Activity is “Active”.

What about the Activity (Vaccinia virus WR [3]) of the same compound?
The Activity was “inactive”.

And the “fold change (FC)” value (Vaccinia virus WR [4])?
The value was 260.

What about the Activity (Vaccinia virus WR [5]) of the same compound?
Its Activity is “Active”.

What about the Activity (Vaccinia virus WR [6]) of the same compound?
The Activity was “Active”.

And the Activity (Vaccinia virus WR [7])?
The Activity was “Active”.

What about the “fold change (FC)” value (Vaccinia virus WR [8]) of the same compound?
The value was 8.

And the “fold change (FC)” value (Vaccinia virus WR [9])?
Its value is 71.

And the Activity (Vaccinia virus WR [10])?
Its Activity is “inactive”.

What about the Activity (Vaccinia virus WR [11]) of the same compound?
Its Activity is “inactive”.

What about the Activity (Vaccinia virus WR [12]) of the same compound?
The Activity was “Active”.

And the “fold change (FC)” value (Vaccinia virus WR [13])?
Its value is 4.

What about the “fold change (FC)” value (Vaccinia virus WR [14]) of the same compound?
The value was 3900.

What about the Activity (Vaccinia virus WR [15]) of the same compound?
Its Activity is “Active”.

What about the “fold change (FC)” value (Vaccinia virus WR [16]) of the same compound?
The value was 1.78.

And the Activity (Vaccinia virus WR [17])?
The Activity was “inactive”.

And the Activity (Vaccinia virus WR [18])?
Its Activity is “Active”.

And the “fold change (FC)” value (Vaccinia virus WR [19])?
Its value is 22.

What about the Activity (Vaccinia virus WR [20]) of the same compound?
The Activity was “Active”.

And the Activity (Vaccinia virus WR [21])?
The Activity was “inactive”.

What about the Activity (Vaccinia virus WR [22]) of the same compound?
Its Activity is “Active”.

What about the “fold change (FC)” value (Vaccinia virus WR [23]) of the same compound?
Its value is 300.

And the “fold change (FC)” value (Vaccinia virus WR [24])?
The value was 16.

And the Activity (Vaccinia virus WR [25])?
Its Activity is “Active”.

What about the Activity (Vaccinia virus WR [26]) of the same compound?
Its Activity is “Active”.

Reference: ChEMBL document CHEMBL1649270, “ST-246 inhibits in vivo poxvirus dissemination, virus shedding, and systemic disease manifestation” (2009)
